Data taken from patent US11464770B2, “Anticancer pharmaceutical composition” (NATIONAL CANCER CENTER, priority 2016, dated 2022).
Read-outs that look alike come from different tables or passages of the source.

What was measured:
[1] = system: lung cancer cell lines (e.g. NCI-H23, NCI-H1229); experiment: Cell based assay, cell viability (CellTiter-Glo), lung cancer cell lines; conditions: Homo sapiens, 72 hours treatment, CellTiter-Glo
How it was run: (§1)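 Viability measured by ATP luminescence following 72 h treatment over a 0–2 μM final concentration range.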

[2] = system: blood cancer cell lines (e.g. HL-60, Jurkat, Raji, Ramos, Daudi, MOLT-4); experiment: Cell based assay, cell viability (CellTiter-Glo), blood cancer cell lines; conditions: Homo sapiens
How it was run: as §1

[3] = system: melanoma cell lines; experiment: Cell based assay, cell viability (CellTiter-Glo), melanoma cell lines; conditions: Homo sapiens; LOX-IMVI cell line
How it was run: as §1

[4] = system: cervical carcinoma cell lines; experiment: Cell based assay, cell viability (CellTiter-Glo), cervical carcinoma cell lines; conditions: Homo sapiens; HeLa cells
[5] = system: ovarian cancer cell lines; experiment: Cell based assay, cell viability (CellTiter-Glo), ovarian cancer cell lines; conditions: Homo sapiens; OVCAR-3 cells
How it was run: as §1

[6] = system: RT4: human urinary bladder transitional cell papilloma; experiment: Cell based assay, cytotoxicity in RT4 papilloma cells (selectivity); conditions: Homo sapiens, RT-4; RT4 cells
[7] = A549 cells, read-out: IC50, lung cancer cell line A549
[8] = DMS 114 cells, read-out: IC50, lung cancer cell line DMS 114
[9] = NCI-H23 cells, read-out: IC50, lung cancer cell line NCI-H23
[10] = NCI-H460 cells, read-out: IC50, lung cancer cell line NCI-H460
[11] = NCI-H522 cells, read-out: IC50, lung cancer cell line NCI-H522
[12] = NCI-H1299 cells, read-out: IC50, lung cancer cell line NCI-H1299
[13] = NCI-H1437 cells, read-out: IC50, lung cancer cell line NCI-H1437
[14] = MV4-11, blood cancer cell line MV-4-11, 72 hours, read-out: IC50, MV-4-11
[15] = blood cancer cell line Daudi, 72 hours, read-out: IC50, Daudi
[16] = blood cancer cell line HL-60, 72 hours, read-out: IC50, HL-60
[17] = blood cancer cell line Jurkat, 72 hours, read-out: IC50, Jurkat
[18] = blood cancer cell line MOLT-4, 72 hours, read-out: IC50, MOLT-4
[19] = blood cancer cell line Raji, 72 hours, read-out: IC50, Raji
[20] = blood cancer cell line Ramos (RA 1), 72 hours, read-out: IC50, Ramos (RA 1)
[21] = blood cancer cell line U-937, 72 hours, read-out: IC50, U-937

Structure (SMILES) | IC50 [1, 7] [nM] | IC50 [1, 8] [nM] | IC50 ([1]; MRC-5 cells, read-out: IC50) [nM] | IC50 [1, 9] [nM] | IC50 [1, 10] [nM] | IC50 [1, 11] [nM] | IC50 [1, 12] [nM] | IC50 [1, 13] [nM] | IC50 [2, 14] [nM] | IC50 [2, 15] [nM] | IC50 [2, 16] [nM] | IC50 [2, 17] [nM] | IC50 [2, 18] [nM] | IC50 [2, 19] [nM] | IC50 [2, 20] [nM] | IC50 [2, 21] [nM] | IC50 [3] [nM] | IC50 [4] [nM] | IC50 [5] [nM] | IC50 [6] [nM]
CC(=O)c1c([S+]([O-])Cc2ccc([S+]([O-])C(F)(F)F)cc2)[nH]c2c(Br)ccc(Cl)c2c1=O (centres unmarked) [Compound 64, 3-acetyl-8-bromo-5-chloro-2-((4-((trifluoromethyl)sulfinyl)benzyl)sulfinyl)quinolin-4(1H)-one] | > 2000 | > 2000 | > 2000 | 980 | > 2000 | > 2000 | 1350 | > 10000 | 1120 | > 2000 | 1500 | 1070 | 1460 | 1090 | 1850 | > 2000 | 1050 | > 10000 | 900 | > 10000
CC(=O)c1c([S+]([O-])Cc2ccc(F)cc2F)[nH]c2c(Br)ccc(Cl)c2c1=O (centres unmarked) [Compound 29, 3-acetyl-8-bromo-5-chloro-2-((2,4-difluorobenzyl)sulfinyl)quinolin-4(1H)-one] | > 2000 | > 2000 | > 2000 | 910 | 1770 | > 2000 | 1420 | > 10000 | 1400 | > 2000 | 1720 | 1080 | 1440 | 1180 | 1670 | 1050 | 1240 | > 10000 | 800 | > 10000
CC(=O)c1c([S+]([O-])Cc2ccc([N+](=O)[O-])cc2)[nH]c2c(Br)ccc(Cl)c2c1=O (centres unmarked) [Compound 33, 3-acetyl-8-bromo-5-chloro-2-((4-nitrobenzyl)sulfinyl)quinolin-4(1H)-one] | > 2000 | > 2000 | 820 | 860 | 1780 | > 2000 | 1380 | > 10000 | 1280 | > 2000 | 1770 | 1030 | 1440 | 970 | > 2000 | > 2000 | 1130 | > 10000 | 1180 | > 10000
COc1cccc(C[S+]([O-])c2[nH]c3c(Br)ccc(Cl)c3c(=O)c2C(C)=O)c1 (centres unmarked) [Compound 55, 3-acetyl-8-bromo-5-chloro-2-((3-methoxybenzyl)sulfinyl)quinolin-4(1H)-one] | > 2000 | > 2000 | > 2000 | 1280 | > 2000 | > 2000 | > 2000 | > 10000 | > 2000 | > 2000 | > 2000 | 1300 | 1470 | > 2000 | > 2000 | > 2000 | 1620 | > 10000 | 920 | > 10000
CC(=O)c1c([S+]([O-])Cc2cc(F)cc(F)c2)[nH]c2c(Br)ccc(Cl)c2c1=O (centres unmarked) [Compound 46, 3-acetyl-8-bromo-5-chloro-2-((3,5-difluorobenzyl)sulfinyl)quinolin-4(1H)-one] | > 2000 | > 2000 | > 2000 | 1270 | > 2000 | > 2000 | 1870 | > 10000 | > 2000 | > 2000 | > 2000 | > 2000 | > 2000 | > 2000 | > 2000 | > 2000 | 1570 | > 10000 | 1020 | > 10000
CC(=O)c1c([S+]([O-])Cc2c(F)cccc2Cl)[nH]c2c(Br)ccc(Cl)c2c1=O (centres unmarked) [Compound 74, 3-acetyl-8-bromo-5-chloro-2-((2-chloro-6-fluorobenzyl)sulfinyl)quinolin-4(1H)-one] | > 2000 | > 2000 | > 2000 | 1080 | > 2000 | > 2000 | 1420 | > 10000 | 1340 | > 2000 | 1980 | > 2000 | 1710 | > 2000 | > 2000 | > 2000 | 1260 | > 10000 | 980 | > 10000
CC(=O)c1c([S+]([O-])Cc2c(F)c(F)c(F)c(F)c2F)[nH]c2c(Br)ccc(Cl)c2c1=O (centres unmarked) [Compound 78, 3-acetyl-8-bromo-5-chloro-2-(((perfluorophenyl)methyl)sulfinyl)quinolin-4(1H)-one] | > 2000 | > 2000 | 1500 | 1340 | > 2000 | > 2000 | 1810 | > 10000 | > 2000 | > 2000 | > 2000 | > 2000 | > 2000 | > 2000 | 1980 | > 2000 | 1370 | > 10000 | 1010 | > 10000
